Results: publication PMC7168933, “Design, Synthesis and Biochemical Evaluation of Novel Ethanoanthracenes and Related Compounds to Target Burkitt’s Lymphoma” (Pharmaceuticals, 2020)
Read-outs that look alike come from different tables or passages of the source.

What was measured:
[1] = test system: DG-75 Burkitt lymphoma cell line (EBV−, chemoresistant); test: cells; conditions: Homo sapiens, DG-75, 48 h
[2] = test system: MUTU-1 Burkitt lymphoma cell line (EBV+); test: cells; conditions: Mutu-1, 24 h; for IC50: read-out: IC50 MUTU-I 24 h
[3] = read-out: DG-75 Cell Viability % 1 μM, 1 μM, 48 h
[4] = read-out: MUTU-1 Cell Viability % 1 μM, 1 μM, 24 h
[5] = read-out: MUTU-1 Cell Viability % 10 μM, 10 μM, 24 h
[6] = read-out: DG-75 Cell Viability % 10 μM, 10 μM, 48 h

| SMILES | viability at 1 µM [1, 3] [%] | viability at 0.5 µM ([1]; read-out: viable cells in DG-75 at 0.5 µM, 0.5 µM, 48 h) [%] | melting point [°C] | viability at 1 µM [2, 4] [%] | viability at 10 µM [2, 5] [%] | viability at 10 µM [1, 6] [%] | IC50 [2] [µM] | viability at 1 µM ([2]; read-out: MUTU-1 Cell Viability % 1 μM) [%] | viability at 10 µM ([2]; read-out: MUTU-1 Cell Viability % 10 μM) [%] | viability at 1 µM ([1]; read-out: DG-75 Cell Viability % 1 μM) [%] | viability at 10 µM ([1]; read-out: DG-75 Cell Viability % 10 μM) [%] |
| --- | --- | --- | --- | --- | --- | --- | --- | --- | --- | --- | --- |
| CN(C)CCCN1c2ccccc2Sc2ccc(Cl)cc21 [Compound 5] | 6 to 28 | 18 to 57 | – | – | – | – | – | – | – | – | – |
| CC/C(=C\C12c3ccccc3C(c3ccccc31)C1C(=O)OC(=O)C12)[N+](=O)[O-] (stereo not shown) [Compound 13c, (E)-9-(2-Nitrobut-1-en-1-yl)-9,10-dihydro-9,10-[3,4]furanoanthracene-12,14-dione] | 68 | – | 230 to 233 | 64.1 | 74.1 | 80.7 | – | – | – | – | – |
| O=C1OC(=O)C2C1C1(Cl)c3ccccc3C2(/C=C/[N+](=O)[O-])c2ccccc21 (stereo not shown) [Compound 13d, (E)-9-Chloro-10-(2-nitrovinyl)-9,10-dihydro-9,10-[3,4]furanoanthracene-12,14-dione] | 98.7 | – | 275 to 277 | 35.6 | 43.5 | 102 | – | – | – | – | – |
| C/C(=C\C12c3ccccc3C(Cl)(c3ccccc31)C1C(=O)OC(=O)C12)[N+](=O)[O-] (stereo not shown) [Compound 13e, (E)-9-Chloro-10-(2-nitroprop-1-en-1-yl)-9,10-dihydro-9,10-[3,4]furanoanthracene-12,14-dione] | 78.2 | – | 270 to 272 | 83.3 | 101 | 98.2 | – | – | – | – | – |
| CC/C(=C\C12c3ccccc3C(Cl)(c3ccccc31)C1C(=O)OC(=O)C12)[N+](=O)[O-] (stereo not shown) [Compound 13f, (E)-9-Chloro-10-(2-nitrobut-1-en-1-yl)-9,10-dihydro-9,10-[3,4]furanoanthracene-12,14-dione] | 79.9 | – | 259 to 263 | 85.3 | 91.6 | 95.1 | – | – | – | – | – |
| C/C(=C\C12c3ccccc3C(c3ccccc31)C1C(=O)NC(=O)C12)[N+](=O)[O-] (stereo not shown) [Compound 13h, (E)-9-(2-Nitroprop-1-en-1-yl)-9,10-dihydro-9,10-[3,4]epipyrroloanthracene-12,14-dione] | 106 | – | 296 to 300 | 99.7 | 82.6 | 101 | – | – | – | – | – |
| CC/C(=C\C12c3ccccc3C(c3ccccc31)C1C(=O)NC(=O)C12)[N+](=O)[O-] (stereo not shown) [Compound 13i, (E)-9-(2-Nitrobut-1-en-1-yl)-9,10-dihydro-9,10-[3,4]epipyrroloanthracene-12,14-dione] | 96.3 | – | 296 to 298 | 91.1 | 73 | 89.4 | – | – | – | – | – |
| C/C(=C\C12c3ccccc3C(Cl)(c3ccccc31)C1C(=O)NC(=O)C12)[N+](=O)[O-] (stereo not shown) [Compound 13k, (E)-9-Chloro-10-(2-nitroprop-1-en-1-yl)-9,10-dihydro-9,10-[3,4]epipyrroloanthracene-12,14-dione] | 78.2 | – | 295 to 297 | 83.3 | 51.6 | 101 | – | – | – | – | – |
| CC/C(=C\C12c3ccccc3C(Cl)(c3ccccc31)C1C(=O)NC(=O)C12)[N+](=O)[O-] (stereo not shown) [Compound 13l, (E)-9-Chloro-10-(2-nitrobut-1-en-1-yl)-9,10-dihydro-9,10-[3,4]epipyrroloanthracene-12,14-dione] | 90 | – | 294 to 298 | 88.6 | 88.3 | 102 | – | – | – | – | – |
| O=C1OC(=O)C2C1C1c3ccccc3C2(CC[N+](=O)[O-])c2ccccc21 (stereo not shown) [Compound 14a, 9-(2-Nitroethyl)-9,10-dihydro-9,10-[3,4]furanoanthracene-12,14-dione] | 83 | – | 242 to 244 | 76.7 | 99.3 | 102 | – | – | – | – | – |
| O=C1NC(=O)C2C1C1c3ccccc3C2(CC[N+](=O)[O-])c2ccccc21 (stereo not shown) [Compound 14b, 9-(2-Nitroethyl)-9,10-dihydro-9,10-[3,4]epipyrroloanthracene-12,14-dione] | 79.3 | – | 295 to 297 | 58.5 | 95 | 101 | – | – | – | – | – |
| O=C1C2C3c4ccccc4C(CC[N+](=O)[O-])(c4ccccc43)C2C(=O)N1c1ccccc1 (stereo not shown) [Compound 14c, 9-(2-Nitroethyl)-13-phenyl-9,10-dihydro-9,10-[3,4]epipyrroloanthracene-12,14-dione] | 75.7 | – | 248 to 250 | 75.5 | 79.2 | 81.4 | – | – | – | – | – |
| O=C1C2C3c4ccccc4C(/C=C/[N+](=O)[O-])(c4ccccc43)C2C(=O)N1c1ccc(F)cc1 (stereo not shown) [Compound 16e, (E)-13-(4-Fluorophenyl)-9-(2-nitrovinyl)-9,10-dihydro-9,10-[3,4]epipyrroloanthracene-12,14-dione] | 35.4 | – | 242 to 243 | 0.07 | 1.4 | 2.3 | 0.25 | – | – | – | – |
| COc1cc(N2C(=O)C3C4c5ccccc5C(/C=C/[N+](=O)[O-])(c5ccccc54)C3C2=O)cc(OC)c1OC (stereo not shown) [Compound 16f, (E)-9-(2-Nitrovinyl)-13-(3,4,5-trimethoxyphenyl)-9,10-dihydro-9,10-[3,4]epipyrroloanthracene-12,14-dione] | 25.6 | – | 270 to 272 | 1.8 | 1.1 | 0.46 | 0.24 | – | – | – | – |
| O=C1C2C3c4ccccc4C(/C=C/[N+](=O)[O-])(c4ccccc43)C2C(=O)N1c1ccc(Br)cc1 (stereo not shown) [Compound 16g, (E)-13-(4-Bromophenyl)-9-(2-nitrovinyl)-9,10-dihydro-9,10-[3,4]epipyrroloanthracene-12,14-dione] | 28.2 | – | 267 to 268 | 2.1 | 1.1 | 0.55 | 0.22 | – | – | – | – |
| COC(=O)c1ccc(N2C(=O)C3C4c5ccccc5C(/C=C/[N+](=O)[O-])(c5ccccc54)C3C2=O)cc1 (stereo not shown) [Compound 16h, Methyl (E)-4-(9-(2-nitrovinyl)-12,14-dioxo-9,10-dihydro-9,10-[3,4]epipyrroloanthracen-13-yl)benzoate] | 20.8 | – | 254 to 255 | 2.3 | 0.79 | 0.18 | 0.2 | – | – | – | – |
| CCOC(=O)C1CC2c3ccccc3C1(/C=C/[N+](=O)[O-])c1ccccc12 (stereo not shown) [Compound 19b, Ethyl (E)-10-(2-nitrovinyl)-9,10-dihydro-9,10-ethanoanthracene-11-carboxylate] | 9.8 | – | – | 48.9 | 0.69 | 13.4 | – | – | – | – | – |
| COC(=O)C1CC2c3ccccc3C1(/C=C/[N+](=O)[O-])c1ccccc12 (stereo not shown) [Compound 19c, Methyl (E)-10-(2-nitrovinyl)-9,10-dihydro-9,10-ethanoanthracene-11-carboxylate] | 92.2 | – | – | 15.6 | 8.4 | 1.4 | 0.54 | – | – | – | – |
| O=C1OC(=O)C2C3c4ccccc4C(c4ccccc43)C12 (stereo not shown) [Compound 21a] | 91.4 | – | – | 103 | 93.1 | 69.9 | – | – | – | – | – |
| O=CC12c3ccccc3C(c3ccccc31)C1C(=O)OC(=O)C12 (stereo not shown) [Compound 21d] | 64.8 | – | – | 87.4 | 88.4 | 64.7 | – | – | – | – | – |
| O=CC12c3ccccc3C(c3ccccc31)C1C(=O)NC(=O)C12 (stereo not shown) [Compound 21e] | 76 | – | – | 96.1 | 95.1 | 71.2 | – | – | – | – | – |
| O=CC12c3ccccc3C(c3ccccc31)C1C(=O)N(c3ccccc3)C(=O)C12 (stereo not shown) [Compound 21f] | 102 | – | – | 102 | 77.7 | 72.4 | – | – | – | – | – |
| O=C1OC(=O)C2C1C1c3ccccc3C2(C(=O)O)c2ccccc21 (stereo not shown) [Compound 21g] | 93.1 | – | – | 99.2 | 88.8 | 65.4 | – | – | – | – | – |
| O=C1NC(=O)C2C1C1c3ccccc3C2(C(=O)O)c2ccccc21 (stereo not shown) [Compound 21h] | 86.3 | – | – | 92.6 | 92 | 73.1 | – | – | – | – | – |
| O=C1C2C3c4ccccc4C(C(=O)O)(c4ccccc43)C2C(=O)N1c1ccccc1 (stereo not shown) [Compound 21i] | 73.2 | – | – | 103 | 92.5 | 67.5 | – | – | – | – | – |
| O=C1OC(=O)C2C1C1c3ccccc3C2(O)c2ccccc21 (stereo not shown) [Compound 21j] | 68 | – | – | 103 | 100 | 93 | – | – | – | – | – |
| N/N=C/C12c3ccccc3C(c3ccccc31)C1C(=O)N(c3ccccc3)C(=O)C12 (stereo not shown) [Compound 23h, (E)-9-(Hydrazonomethyl)-13-phenyl-9,10-dihydro-9,10-[3,4]epipyrroloanthracene-12,14-dione] | 85.8 | – | – | 91.1 | 78 | 87.4 | – | – | – | – | – |
| CNCCCC12CCC(c3ccccc31)c1ccccc12 [Maprotiline 8, maprotiline, reference compound] | – | – | – | – | – | – | – | 93.1 | 73 | 102 | 65.1 |
